Blank lines part the entries; values can stand above or below the molecule they belong to.
Experiments:
F41A APEX2 = target: T1, F41A APEX2 (Glycine max, UniProt Q43758, A134P/E112K/K14D/W41A); assay: Oxidation of DHT by F41A APEX2, UV-Vis initial rates and kinetic parameters; format: biochemical; details: for Initial rate of oxidation of DHT by F41A APEX2 + SOD: SOD 1 μM, PBS, 100 μM EDTA, first 100 s
T1 sequence (Q43758 1-250 A134P/E112K/K14D/W41A): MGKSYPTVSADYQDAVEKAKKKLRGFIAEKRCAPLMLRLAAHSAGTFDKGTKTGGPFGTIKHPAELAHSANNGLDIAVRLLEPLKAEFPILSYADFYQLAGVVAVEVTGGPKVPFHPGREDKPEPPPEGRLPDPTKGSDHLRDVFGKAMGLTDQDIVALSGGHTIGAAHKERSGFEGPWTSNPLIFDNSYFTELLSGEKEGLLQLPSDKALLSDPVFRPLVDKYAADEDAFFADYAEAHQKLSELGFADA
Description: UV-Vis and fluorescence measurements were conducted in quartz cuvettes. All reactions were conducted in phosphate buffered saline (PBS) containing 100 μM EDTA with a pH=7.4. The PBS was prepared by adding 25 mM phosphate salts (Na2HPO4 and NaH2PO4), 100 mM NaCl, 100 μM EDTA to DI water. EDTA was added to quench free metals that can oxidize DHT. The buffer was pH adjusted to 7.4 using 1 mM HCl and 1 mM NaOH. UV experiments were stirred at 25° C. in a temperature-controlled cuvette holder of the spectrophotometer. Solutions of 15 or 16 were prepared from methanol stock solutions.
SOD (1 μM) was added to PBS containing 100 μM EDTA. 15 or 16 (60 μM) was added from methanol stock solutions. After 10s, APEX2 (SEQ ID NO:1) or F41A APEX2 (275 nM) was dosed in and oxidation was monitored at 325 nm for 15 and 285 nm for 16 at 60s intervals.
The initial rate of oxidation was calculated from the first 100 seconds after APEX2 (SEQ ID NO:1) or F41A APEX2 was added ([…]). In the assays where SOD was added, SOD (1 μM) was added to PBS containing 100 μM EDTA and 15 or 16 was dosed in. 10 seconds later, APEX2 (SEQ ID NO:1) or F41A APEX2 ([…]) was added and the rate of oxidation was calculated from the first 100 seconds after APEX2 (SEQ ID NO:1) or F41A APEX2 ([…]) addition. The initial rate of oxidation was adjusted to background oxidation of DHT in PBS with 100 μM EDTA. Kinetic parameters (Table 2) were determined using GraphPad's Prism 6 software from the data presented below (Table 3-4).

[1] = DHTz stability in PBS containing 10% mouse serum; format: in vitro ADME; details: 1 h
From the text: A challenge to the development of catalytic methods for turning on the tetrazine ligation was the identification of a DHTz/Tz pair that would be stable in both oxidation states (FIG. 1, panel B). For most redox couples, either the DHTz is too readily oxidized in air (e.g., 1), or the Tz is too reactive toward water and other nucleophiles (e.g., 2). The inventors show here that the dipyridyl DHTz/Tz pair (3/4) has good stability in both states (FIG. 1, panel C). Dihydrotetrazines 3 are highly resistant toward background oxidation in organic solvents, and a number of derivatives have been synthesized and shown stable even to silica gel chromatography. […] Aqueous solutions of 3a were handled in glassware that had been first rinsed with 2.0 mM EDTA in PBS to remove adventitious metal impurities. After standing in the dark at 25° C. in PBS buffer, a solution of 3a was monitored by UV-vis and shown to retain 99 and 96% of the DHTz oxidation state over 30 min and 2.5 hours respectively. […] In PBS containing 10% mouse serum, 90% of 3a was retained in the DHTz oxidation state after 1 h. Analogs of tetrazines 4 have been described previously and used broadly for applications in nuclear medicine and cell imaging. […]

[2] = Methylene blue catalyzed photooxidation of DHTz to tetrazine
Description: Upon addition of horseradish peroxidase (15 nM) the UV-vis spectrum was monitored every 10 seconds. With 50% conversion after 100 seconds, complete conversion of 3a to 4a is observed after 600 seconds, as evidenced by the decrease in the absorption at 292 nm and increase at 325 nm with an isosbestic point at 303 nm. Similar spectral changes are observed when 3a is electrochemically oxidized to 4a in aqueous solution, or when the oxidation of 3a to 4a is photocatalyzed by methylene blue. […] Methylene blue was considered a particularly attractive sensitizer due to its clinical relevance, low molecular weight, low toxicity, high solubility, and an absorption spectrum (λmax 665 nm) that extends to the near IR. Further, methylene blue has previously been explored for applications in photodynamic therapy based on oxidation of indole-3-acetic acid. Rose bengal (λmax 550 nm), used in a range of biomedical applications, was also identified as an excellent sensitizer. […] […] […] The mechanism of photooxidation more likely involves electron transfer and is the subject of ongoing study.
Thus, a PBS solution of 3a was sparged with 98% nitrogen and 2% air, such that the final O2 concentration was 5 μM.
Oxidation of 3a to 4a was monitored by recording absorbance at 325 nm every 30 seconds. Cuvettes for these experiments were washed with EDTA/PBS as described in the General Considerations (section 2.1). […]

[3] = Dihydrotetrazine oxidative stability (UV-vis); format: physicochemical
From the text: A challenge to the development of catalytic methods for turning on the tetrazine ligation was the identification of a DHTz/Tz pair that would be stable in both oxidation states (FIG. 1, panel B). For most redox couples, either the DHTz is too readily oxidized in air (e.g., 1), or the Tz is too reactive toward water and other nucleophiles (e.g., 2). The inventors show here that the dipyridyl DHTz/Tz pair (3/4) has good stability in both states (FIG. 1, panel C). Dihydrotetrazines 3 are highly resistant toward background oxidation in organic solvents, and a number of derivatives have been synthesized and shown stable even to silica gel chromatography. […] Aqueous solutions of 3a were handled in glassware that had been first rinsed with 2.0 mM EDTA in PBS to remove adventitious metal impurities. After standing in the dark at 25° C. in PBS buffer, a solution of 3a was monitored by UV-vis and shown to retain 99 and 96% of the DHTz oxidation state over 30 min and 2.5 hours respectively. […] In PBS containing 10% mouse serum, 90% of 3a was retained in the DHTz oxidation state after 1 h. Analogs of tetrazines 4 have been described previously and used broadly for applications in nuclear medicine and cell imaging. […] The stability of a radiolabeled derivative of tetrazine 4b has been studied by Robillard at 37° C. in PBS, serum and blood, with 97%, 87% and 59% retention of the tetrazine observed after 2 hours.
A solution (3 mL) containing 3a (35 μM) in PBS buffer was prepared in a cuvette from stock solutions. Oxidation was monitored by recording solution absorbance at 0, 30 and 150 minutes. The cuvette was stored in the dark between measurements. Comparison of HRP, cytochrome C and hemoglobin: Solutions (1 mL) of 3a (30 μM) in PBS buffer were prepared in a cuvette from stock solutions. To the solutions, either hemoglobin ([…]) or cytochrome C (9 μM) were added and while oxidation was monitored every 30 seconds by measuring absorbance at 325 nm.

Compound: O=C(O)CCCC(=O)Nc1ccc(C2=NNC(c3ccccn3)=NN2)nc1 [compound 15]
Initial rate of oxidation of DHT by F41A APEX2 + SOD (F41A APEX2; DHT 5 μM): 1.080 +/− 0.113 ×10^−8 M/s
Initial rate of oxidation of DHT by F41A APEX2 + SOD (F41A APEX2; DHT 10 μM): 2.625 +/− 0.177 ×10^−8 M/s
Initial rate of oxidation of DHT by F41A APEX2 + SOD (F41A APEX2; DHT 15 μM): 2.549 +/− 0.145 ×10^−8 M/s
Initial rate of oxidation of DHT by F41A APEX2 + SOD (F41A APEX2; DHT 20 μM): 3.629 +/− 0.413 ×10^−8 M/s
Initial rate of oxidation of DHT by F41A APEX2 + SOD (F41A APEX2; DHT 25 μM): 3.863 +/− 0.163 ×10^−8 M/s
Initial rate of oxidation of DHT by F41A APEX2 + SOD (F41A APEX2; DHT 30 μM): 5.019 +/− 0.089 ×10^−8 M/s
Initial rate of oxidation of DHT by F41A APEX2 + SOD (F41A APEX2; DHT 40 μM): 5.758 +/− 0.855 ×10^−8 M/s
Initial rate of oxidation of DHT by F41A APEX2 + SOD (F41A APEX2; DHT 50 μM): 5.978 +/− 0.304 ×10^−8 M/s
Initial rate of oxidation of DHT by F41A APEX2 + SOD (F41A APEX2; DHT 60 μM): 7.688 +/− 0.698 ×10^−8 M/s
Initial rate of oxidation of DHT by F41A APEX2 + SOD (F41A APEX2; DHT 70 μM): 7.685 +/− 0.869 ×10^−8 M/s
Initial rate of oxidation of DHT by F41A APEX2 + SOD (F41A APEX2; DHT 75 μM): 10.059 +/− 0.594 ×10^−8 M/s
Initial rate of oxidation of DHT by F41A APEX2 + SOD (F41A APEX2; DHT 85 μM): 12.425 +/− 0.046 ×10^−8 M/s
factor of increase of rate of catalysis versus APEX2 (SEQ ID NO:1) (F41A APEX2; F41A APEX2 mutant with SOD): 7

retained in the DHTz oxidation state [1]: 90%
retained DHTz oxidation state ([3]; 35 μM in MeOH, ambient light, 1 hour): 99%
retained DHTz oxidation state ([3]; 35 μM in MeOH, ambient light, 2 hours): 98%
retained DHTz oxidation state ([3]; PBS buffer, ambient light, 25° C., 1 hour): 97%
retained DHTz oxidation state ([3]; PBS buffer, ambient light, 25° C., 2 hours): 94%
retained DHTz oxidation state ([3]; PBS buffer, dark, 25° C., 30 min): 99%
retained DHTz oxidation state ([3]; PBS buffer, dark, 25° C., 2.5 hours): 96%
Compound: O=C(O)CCC(=O)Nc1ccc(C2=NNC(c3ccccn3)=NN2)nc1 [3a, 4-oxo-4-((6-(6-(pyridin-2-yl)-1,4-dihydro-1,2,4,5-tetrazin-3-yl)pyridin-3-yl)amino)butanoic Acid]
time to quantitative conversion to tetrazine 4a ([2]; 3a 21 μM, methylene blue 4 μM, 660 nm LED 9.1 mW/cm^2, pH 7.4 PBS): ≤ 200 s
time to complete conversion of 3a to 4a ([2]; hypoxia model, O2 5 μM, methylene blue 7 μM, 660 nm): ≤ 30 min
conversion of 3a to 4a ([2]; methylene blue 4 μM, ambient light, 2 h): 47%
